According to ChEMBL document CHEMBL5244223, “l,8-Naphthalimide based DNA intercalators and anticancer agents. A systematic review from 2007 to 2017” (Eur J Med Chem, 2018):

How the values were obtained:
Calf thymus DNA [1] = assay: Binding affinity to calf thymus DNA assessed as DNA intercalation by measuring change in melting temperature by thermal denaturation assay; assay type: nucleic-acid assay; details: Bos taurus
COLO 205 = assay: Cytotoxicity against human COLO 205 cells assessed as inhibition of cell growth incubated for 72 hrs by SRB assay; assay type: functional, cell-based; details: COLO 205, 72 h, pooled result: one value given for 7 cell lines, strains, targets or settings
Staphylococcus aureus = assay: Antibacterial activity against Staphylococcus aureus MTCC 96 assessed as inhibition of bacterial growth by agar well diffusion assay; assay type: functional
[2] = system: Staphylococcus epidermidis; assay: Antibacterial activity against Staphylococcus epidermidis MTCC 435 assessed as inhibition of bacterial growth by agar well diffusion assay; assay type: functional
Escherichia coli = assay: Antibacterial activity against Escherichia coli MTCC 443 assessed as inhibition of bacterial growth by agar well diffusion assay; assay type: functional
Pseudomonas aeruginosa = assay: Antibacterial activity against Pseudomonas aeruginosa MTCC 741 assessed as inhibition of bacterial growth by agar well diffusion assay; assay type: functional
K562 [3] = assay: Cytotoxicity against human K562 cells assessed as cell growth inhibition incubated for 48 hrs by sulforhodamine B reagent assay; assay type: functional, cell-based; details: K562, 48 h
EKVX = assay: Cytotoxicity against human EKVX cells assessed as cell growth inhibition incubated for 48 hrs by sulforhodamine B reagent assay; assay type: functional, cell-based
NCI-H322M = assay: Cytotoxicity against human NCI-H322M cells assessed as cell growth inhibition incubated for 48 hrs by sulforhodamine B reagent assay; assay type: functional, cell-based
HCT-116 [4] = assay: Cytotoxicity against human HCT-116 cells assessed as cell growth inhibition incubated for 48 hrs by sulforhodamine B reagent assay; assay type: functional, cell-based; details: HCT-116, 48 h
KM12 = assay: Cytotoxicity against human KM12 cells assessed as cell growth inhibition incubated for 48 hrs by sulforhodamine B reagent assay; assay type: functional, cell-based; details: KM12, 48 h
SW-620 = assay: Cytotoxicity against human SW620 cells assessed as cell growth inhibition incubated for 48 hrs by sulforhodamine B reagent assay; assay type: functional, cell-based; details: SW-620, 48 h
SF-539 = assay: Cytotoxicity against human SF-539 cells assessed as cell growth inhibition incubated for 48 hrs by sulforhodamine B reagent assay; assay type: functional, cell-based; details: SF-539, 48 h
SNB-75 = assay: Cytotoxicity against human SNB-75 cells assessed as cell growth inhibition incubated for 48 hrs by sulforhodamine B reagent assay; assay type: functional, cell-based; details: SNB-75, 48 h
U-251 = assay: Cytotoxicity against human U-251 cells assessed as cell growth inhibition incubated for 48 hrs by sulforhodamine B reagent assay; assay type: functional, cell-based; details: U-251, 48 h
Malme-3M = assay: Cytotoxicity against human Malme-3M cells assessed as cell growth inhibition incubated for 48 hrs by sulforhodamine B reagent assay; assay type: functional, cell-based
SK-MEL-28 = assay: Cytotoxicity against human SK-MEL-28 cells assessed as cell growth inhibition incubated for 48 hrs by sulforhodamine B reagent assay; assay type: functional, cell-based; details: SK-MEL-28, 48 h
SK-MEL-5 = assay: Cytotoxicity against human SK-MEL-5 cells assessed as cell growth inhibition incubated for 48 hrs by sulforhodamine B reagent assay; assay type: functional, cell-based; details: SK-MEL-5, 48 h
OVCAR-4 = assay: Cytotoxicity against human OVCAR-4 cells assessed as cell growth inhibition incubated for 48 hrs by sulforhodamine B reagent assay; assay type: functional, cell-based; details: OVCAR-4, 48 h
786-0 = assay: Cytotoxicity against human 786-0 cells assessed as cell growth inhibition incubated for 48 hrs by sulforhodamine B reagent assay; assay type: functional, cell-based; details: 786-0, 48 h
RXF 393 = assay: Cytotoxicity against human RXF 393 cells assessed as cell growth inhibition incubated for 48 hrs by sulforhodamine B reagent assay; assay type: functional, cell-based; details: RXF 393, 48 h
DU-145 = assay: Cytotoxicity against human DU-145 cells assessed as cell growth inhibition incubated for 48 hrs by sulforhodamine B reagent assay; assay type: functional, cell-based; details: DU-145, 48 h
MCF7 [5] = assay: Cytotoxicity against human MCF7 cells assessed as cell growth inhibition incubated for 48 hrs by sulforhodamine B reagent assay; assay type: functional, cell-based; details: MCF7, 48 h
MDA-MB-231 [6] = assay: Cytotoxicity against human MDA-MB-231 cells assessed as cell growth inhibition incubated for 48 hrs by sulforhodamine B reagent assay; assay type: functional, cell-based; details: MDA-MB-231, 48 h
Hs-578T = assay: Cytotoxicity against human Hs-578T cells assessed as cell growth inhibition incubated for 48 hrs by sulforhodamine B reagent assay; assay type: functional, cell-based
T47D = assay: Cytotoxicity against human T47D cells assessed as cell growth inhibition incubated for 48 hrs by sulforhodamine B reagent assay; assay type: functional, cell-based
BT-549 = assay: Cytotoxicity against human BT-549 cells assessed as cell growth inhibition incubated for 48 hrs by sulforhodamine B reagent assay; assay type: functional, cell-based; details: BT-549, 48 h
HepG2 = assay: Antiproliferative activity against human HepG2 cells assessed as inhibition of cell proliferation incubated for 48 hrs by MTT assay; assay type: functional, cell-based; details: HepG2, 48 h
HCT-116 [7] = assay: Antiproliferative activity against human HCT-116 cells assessed as inhibition of cell proliferation incubated for 48 hrs by MTT assay; assay type: functional, cell-based; details: HCT-116, 48 h
K562 [8] = assay: Antiproliferative activity against human K562 cells assessed as inhibition of cell proliferation incubated for 48 hrs by MTT assay; assay type: functional, cell-based; details: K562, 48 h
MDA-MB-231 [9] = assay: Antiproliferative activity against human MDA-MB-231 cells assessed as inhibition of cell proliferation incubated for 48 hrs by MTT assay; assay type: functional, cell-based; details: MDA-MB-231, 48 h
Mus musculus [10] = assay: Antitumor activity against mouse H22 cells xenografted in Kunming mouse assessed as decrease in tumor growth at 1 mg/kg administered as single injection via caudal vein for 7 consecutive days; assay type: functional; set-up: scale not given: the % may be the effect or the level left
Sarcoma-180 [11] = assay: Antitumor activity against mouse Sarcoma-180 cells xenografted in Swiss mouse assessed as T/C ratio at 40 mg/kg, po daily measured upto 7 days; assay type: functional; details: time <= 7 day
Ehrlich = assay: Antitumor activity against mouse EAC cell xenografted in Swiss mouse assessed as T/C ratio at 40 mg/kg, po daily measured upto 7 days; assay type: functional; details: time <= 7 day
Sarcoma-180 [12] = assay: Inhibition of DNA synthesis in mouse Sarcoma-180 cells at 8 uM incubated for 30 mins by [3H]-thymidine incorporation based scintillation counter analysis; assay type: functional; details: Sarcoma-180, 0.5 h
Sarcoma-180 [13] = assay: Inhibition of RNA synthesis in mouse Sarcoma-180 cells at 8 uM incubated for 60 mins by [3H]-uridine incorporation based scintillation counter analysis; assay type: functional; details: Sarcoma-180, 1 h
HeLa = assay: Cytotoxicity against human HeLa cells assessed as cell growth inhibition by MTT assay; assay type: functional, cell-based
A549 = assay: Cytotoxicity against human A549 cells assessed as cell growth inhibition by MTT assay; assay type: functional, cell-based
HL-60 = assay: Cytotoxicity against human HL-60 cells assessed as cell growth inhibition by MTT assay; assay type: functional, cell-based
MCF7 [14] = assay: Cytotoxicity against human MCF7 cells assessed as cell growth inhibition by MTT assay; assay type: functional, cell-based
HCT-8 = assay: Cytotoxicity against human HCT-8 cells assessed as cell growth inhibition by MTT assay; assay type: functional, cell-based
A-375 = assay: Cytotoxicity against human A-375 cells assessed as cell growth inhibition by MTT assay; assay type: functional, cell-based
P388 = assay: Cytotoxicity against mouse P388 cells assessed as cell growth inhibition by MTT assay; assay type: functional, cell-based
HCT-116 [15] = assay: Cytotoxicity against human HCT-116 cells assessed as inhibition of cell growth incubated for 24 hrs by XTT assay; assay type: functional, cell-based; details: HCT-116, 24 h
PANC-1 = assay: Cytotoxicity against human PANC-1 cells assessed as inhibition of cell growth incubated for 24 hrs by XTT assay; assay type: functional, cell-based; details: PANC-1, 24 h
Mus musculus [16] = assay: Antitumor activity against mouse H22 cells xenografted in Kunming mouse assessed as decrease in tumor growth at 5 mg/kg administered as single injection via caudal vein for 7 consecutive days; assay type: functional; set-up: scale not given: the % may be the effect or the level left
Calf thymus DNA [17] = assay: Binding affinity to calf thymus DNA assessed as binding constant by fluorescence based EtBr-displacement based UV-Vis spectroscopic analysis; assay type: nucleic-acid assay; details: Bos taurus
Homo sapiens [18] = organism: Homo sapiens; assay: Binding affinity to double stranded [poly(dA-dT)2] DNA (unknown origin) assessed as change in melting temperature by thermal denaturation based spectrometer analysis
Homo sapiens [19] = organism: Homo sapiens; assay: Binding affinity to double stranded [poly(dA-dT)2] DNA (unknown origin) assessed as change in melting temperature in presence of NaCl by thermal denaturation based spectrometer analysis

O=C1c2cccc3cccc(c23)C(=O)N1c1nc(-c2cc3cc(Cl)cc(Cl)c3oc2=O)cs1
18.8 µg/mL: MIC (Staphylococcus aureus) | MIC [2] | MIC (Escherichia coli) | MIC (Pseudomonas aeruginosa)
3.8 °C: ΔTm (Calf thymus DNA [1])
190 nM: IC50 (COLO 205)

CN1CCN(c2ccc3nc(-c4ccc(OCCCN5C(=O)c6cccc7cccc(c67)C5=O)cc4)[nH]c3c2)CC1
110 nM: IC50 (K562 [3]) | IC50 (EKVX) | IC50 (NCI-H322M) | IC50 (HCT-116 [4]) | IC50 (KM12) | IC50 (SW-620) | IC50 (SF-539) | IC50 (SNB-75) | IC50 (U-251) | IC50 (Malme-3M) | IC50 (SK-MEL-28) | IC50 (SK-MEL-5) | IC50 (OVCAR-4) | IC50 (786-0) | IC50 (RXF 393) | IC50 (DU-145) | IC50 (MCF7 [5]) | IC50 (MDA-MB-231 [6]) | IC50 (Hs-578T) | IC50 (T47D) | IC50 (BT-549)

Cl.Cl.Cl.Cl.NCCCNCCCCNCCCNCC(=O)NCCCN1C(=O)c2cccc3cccc(c23)C1=O
2860 nM: IC50 (HepG2) | IC50 (HCT-116 [7]) | IC50 (K562 [8]) | IC50 (MDA-MB-231 [9])
70.92%: Activity (Mus musculus [10])

CCN(N=O)C(=O)NCCN1C(=O)c2cccc3cccc(c23)C1=O
65%: inhibition at 8 µM (Sarcoma-180 [12])
60%: inhibition at 8 µM (Sarcoma-180 [13])
140%: T/C (Sarcoma-180 [11])
134%: T/C (Ehrlich)

COc1ccc2c(CC(=O)NCCN3C(=O)c4cccc5c(N(C)C)ccc(c45)C3=O)c(C)n(C(=O)c3ccc(Cl)cc3)c2c1
13900 nM: IC50 (HeLa) | IC50 (A549) | IC50 (HL-60) | IC50 (MCF7 [14]) | IC50 (HCT-8) | IC50 (A-375) | IC50 (P388)

CN(C)CCN1C(=O)c2cccc3cc(N)cc(c23)C1=O [AMONAFIDE]
43.73%: Activity (Mus musculus [16])
2700 nM: IC50 (HCT-116 [15]) | IC50 (PANC-1)

O=C1c2cccc3c([N+](=O)[O-])ccc(c23)C(=O)N1c1cccc(-c2cc[n+]3c(c2)-c2cccc[n+]2CC3)c1
6.5 10^6/M: K (Calf thymus DNA [17])
11 °C: ΔTm (Homo sapiens [19])
23 °C: ΔTm (Homo sapiens [18])

O=C1c2cccc3cccc(c23)C(=O)N1CCCCOc1ccc(-c2nc3ccc(N4CCOCC4)cc3[nH]2)cc1
110 nM: IC50 (K562 [3]) | IC50 (EKVX) | IC50 (NCI-H322M) | IC50 (HCT-116 [4]) | IC50 (KM12) | IC50 (SW-620) | IC50 (SF-539) | IC50 (SNB-75) | IC50 (U-251) | IC50 (Malme-3M) | IC50 (SK-MEL-28) | IC50 (SK-MEL-5) | IC50 (OVCAR-4) | IC50 (786-0) | IC50 (RXF 393) | IC50 (DU-145) | IC50 (MCF7 [5]) | IC50 (MDA-MB-231 [6]) | IC50 (Hs-578T) | IC50 (T47D) | IC50 (BT-549)
